Measurements as given in patent US6706740B2, “Fungicidal heterocyclic aromatic amides and their compositions, methods of use and preparation” (Dow AgroSciences LLC, priority 1999, dated 2004).

Key:
[1] = system: Rhizoctonia solani (RHIZSO); assay: microbe, parasite or virus in culture; format: cell-based; details: Rhizoctonia solani, read-out: RHIZSO in vitro Growth Inhibition
[2] = system: Magnaporthe grisea (Pyricularia oryzae—PYRIOR); assay: microbe, parasite or virus in culture; format: cell-based; details: Pyricularia oryzae, read-out: PYRIOR in vitro Growth Inhibition
[3] = system: Phytophthora infestans (PHYTIN); assay: microbe, parasite or virus in culture; format: cell-based; details: Phytophthora infestans, read-out: PHYTIN in vitro Growth Inhibition
Erysiphe graminis—ERYSGT = assay: Powdery Mildew of Wheat, in vivo whole plant, 24 Hour Protectant; details: Erysiphe; wheat plants sprayed at 100 ppm, inoculated after 24 hours; control of fungal infection vs untreated plants; read-out: ERYSGT in vivo 1 Day Protectant
[4] = system: Stagonospora nodorum (Leptosphaeria nodorum—LEPTNO); assay: In vitro fungal growth inhibition, Stagonospora nodorum (LEPTNO); format: cell-based; details: Leptosphaeria; 25 ppm in the growth medium; read-out: LEPTNO in vitro Growth Inhibition
Ustilago maydis (USTIMA) = assay: microbe, parasite or virus in culture; format: cell-based; details: Mycosarcoma maydis, read-out: USTIMA in vitro Growth Inhibition
[5] = system: Puccinia recondita—PUCCRT; assay: Brown Rust of Wheat, in vivo whole plant, 24 Hour Protectant; details: Puccinia; wheat plants sprayed at 100 ppm, inoculated after 24 hours; control of fungal infection vs untreated plants; read-out: PUCCRT in vivo 1 Day Protectant
[6] = system: Phytophthora infestans—PHYTIN; assay: whole plant or invertebrate; format: in vivo; details: Phytophthora, in Solanum lycopersicum, 24 h, read-out: PHYTIN in vivo 1 Day Protectant
[7] = system: Leptosphaeria nodorum—LEPTNO; assay: Glume Blotch of Wheat, in vivo whole plant, 24 Hour Protectant; details: wheat plants sprayed at 100 ppm, inoculated after 24 hours, control of fungal infection vs untreated plants; for pest or weed control at 100 ppm: Leptosphaeria, read-out: LEPTNO in vivo 1 Day Protectant
Septoria tritici—SEPTTR = assay: Leaf Blotch of Wheat, in vivo whole plant, 24 Hour Protectant; details: Zymoseptoria tritici, 24 h, wheat plants sprayed at 100 ppm, inoculated after 24 hours; control of fungal infection vs untreated plants; read-out: SEPTTR in vivo 1 Day Protectant
[8] = system: Mycosphaerella graminicola (Septoria tritici—SEPTTR); assay: In vitro fungal growth inhibition, Mycosphaerella graminicola (SEPTTR); format: cell-based; details: Zymoseptoria tritici; 25 ppm in the growth medium; read-out: SEPTTR in vitro Growth Inhibition

Row | Compound | inhibition at 25 ppm [1] [%] | melting point | inhibition at 25 ppm [2] [%] | inhibition at 25 ppm [3] [%] | pest or weed control at 100 ppm (Erysiphe graminis—ERYSGT) [%] | inhibition at 25 ppm [4] [%] | inhibition at 25 ppm (Ustilago maydis (USTIMA)) [%] | pest or weed control at 100 ppm [5] [%] | pest or weed control at 100 ppm [6] [%] | pest or weed control at 100 ppm [7] [%] | pest or weed control at 100 ppm (Septoria tritici—SEPTTR) [%] | inhibition at 25 ppm [8] [%] | LEPTNO in vivo 1 Day Protectant [7]
1 | CC1(C)CC(NC(=O)c2cnccc2O)CC(C)(C)C1 [Compound 502] | < 80 | 232 to 235 °C (dec.) | < 80 | < 80 | < 25 | < 80 | < 80 | 25 to 74 | < 25 | 25 to 74 | 25 to 74 | < 80 | –
2 | CC(C)C(=O)O[C@H]1[C@H](C)OC(=O)[C@@H](NC(=O)c2cnccc2O)COC(=O)[C@@H]1Cc1ccccc1 [Compound 503] | < 80 | 213 to 215 °C (dec.) | < 80 | < 80 | 25 to 74 | > 80 | < 80 | 25 to 74 | < 25 | 25 to 74 | < 25 | > 80 | –
3 | CC(C)(C)C1CCC(NC(=O)c2cnccc2O)CC1 (stereo not drawn) [Compound 504] | < 80 | 70 to 78 °C | < 80 | < 80 | < 25 | > 80 | < 80 | < 25 | < 25 | 25 to 74 | < 25 | < 80 | –
4 | CC(C)(C)CNC(=O)c1cccnc1O [Compound 514] | < 80 | 180 to 181 °C | < 80 | < 80 | < 25 | < 80 | < 80 | < 25 | < 25 | 25 to 74 | < 25 | < 80 | –
5 | O=C(NC1CCCCC1)c1cccnc1O [Compound 515] | < 80 | 190 to 192 °C | < 80 | < 80 | < 25 | < 80 | < 80 | < 25 | < 25 | < 25 | 25 to 74 | < 80 | –
6 | COc1cccc(CNC(=O)c2cccnc2O)c1OC [Compound 516] | < 80 | 193 to 194 °C | < 80 | < 80 | < 25 | < 80 | < 80 | < 25 | < 25 | < 25 | < 25 | < 80 | –
7 | O=C(NCc1ccc(Cl)c(Cl)c1)c1cccnc1O [Compound 517] | < 80 | 229 to 230 °C | < 80 | < 80 | < 25 | < 80 | < 80 | < 25 | < 25 | 25 to 74 | < 25 | < 80 | –
8 | O=C(NCCc1ccc(Cl)cc1)c1cccnc1O [Compound 518] | < 80 | 219 to 221 °C | < 80 | < 80 | < 25 | < 80 | < 80 | < 25 | 25 to 74 | < 25 | < 25 | < 80 | –
9 | O=C(NC(Cc1ccccc1)c1ccccc1)c1cccnc1O (stereo not drawn) [Compound 519] | < 80 | 190 to 192 °C | < 80 | < 80 | < 25 | < 80 | < 80 | < 25 | < 25 | 25 to 74 | < 25 | < 80 | –
10 | O=C(Nc1ccccc1Oc1ccccc1)c1cccnc1O [Compound 520] | < 80 | 234 to 235 °C | < 80 | < 80 | < 25 | < 80 | < 80 | < 25 | < 25 | 25 to 74 | < 25 | < 80 | –
11 | O=C(Nc1cccc(Oc2ccccc2)c1)c1cccnc1O [Compound 521] | < 80 | 200 to 201 °C | < 80 | < 80 | < 25 | < 80 | < 80 | < 25 | 25 to 74 | 25 to 74 | < 25 | < 80 | –
12 | O=C(Nc1ccc(Oc2ccccc2)cc1)c1cccnc1O [Compound 522] | < 80 | 223 to 224 °C | < 80 | < 80 | < 25 | < 80 | < 80 | < 25 | < 25 | – | < 25 | < 80 | + +
13 | Cc1ccc(C(=O)NC2CC(C)(C)CC(C)(C)C2)c(O)n1 [Compound 524] | < 80 | 307 to 308 °C | < 80 | < 80 | < 25 | < 80 | < 80 | < 25 | < 25 | < 25 | 25 to 74 | < 80 | –
14 | Cc1ccc(C(=O)N[C@H]2COC(=O)[C@H](Cc3ccccc3)[C@@H](OC(=O)C(C)C)[C@H](C)OC2=O)c(O)n1 [Compound 525] | < 80 | 247 to 250 °C | < 80 | < 80 | < 25 | < 80 | < 80 | 25 to 74 | < 25 | – | 25 to 74 | < 80 | + +
15 | CC1(C)CC(NC(=O)c2cc(O)cnc2O)CC(C)(C)C1 [Compound 526] | < 80 | 320 to 327 °C | < 80 | < 80 | < 25 | < 80 | < 80 | < 25 | < 25 | 25 to 74 | 25 to 74 | < 80 | –
16 | CC(C)C(=O)O[C@H]1[C@H](C)OC(=O)[C@@H](NC(=O)c2cc(O)cnc2O)COC(=O)[C@@H]1Cc1ccccc1 [Compound 527] | < 80 | 120 to 130 °C | < 80 | < 80 | < 25 | < 80 | < 80 | 25 to 74 | < 25 | < 25 | 25 to 74 | < 80 | –
17 | Cc1cc(C)c(C(=O)NC2CC(C)(C)CC(C)(C)C2)c(O)n1 [Compound 528] | < 80 | 286 to 288 °C | < 80 | < 80 | < 25 | < 80 | < 80 | < 25 | < 25 | < 25 | 25 to 74 | < 80 | –
